# Data as given in patent publication US10954253B2, “1,2-dihydro-3H-pyrazolo[3,4-d]pyrimidin-3-one derivative as Wee1 inhibitor” (SHIJIAZHUANG SAGACITY NEW DRUG DEVELOPMENT CO., LTD., priority 2017, dated 2021).
# Target: Wee1 (Homo sapiens (Human), UniProt P30291)
# Assay: In vitro enzymatic inhibitory activity (33P-ATP filter-binding kinase assay, MBP substrate)
# Format: biochemical
# Settings: Wee-1 150 nM, MBP 20 μM
# Protocol: The compounds of the present invention for experimental use were all self-prepared, and their chemical names and structural formulas are shown in the preparation embodiments of the respective compounds. The experimental tests were carried out in Reaction Biology Corporation, USA, and the experimental results were provided by the company. Basic reaction buffer: 20 mM hydroxyethylpiperazine ethanesulfuric acid (pH 7.5), 10 mM magnesium chloride, 1 mM EGTA, 0.02% Brij35, 0.02 mg/mL bovine serum albumin, 0.1 mM Na3VO4, 2 mM DTT, 1% DMSO Enzyme: Wee-1 concentration is 150 nM Matrix: MBP concentration is 20 μM The tested compound was formulated into a 5 mM solution with 100% DMSO, and a 10 points 3-fold gradient dilution was performed with DMSO through an automated pipetting station epMotion 5070. 1. Fresh matrix configuration reaction buffer was prepared; 2. The Wee-1 was added into the matrix solution and shaked gently; 3. DMSO solution of the compound were added into the kinase reaction mixture using an acoustic technique (Echo 550; nanoliter range) and incubated for 20 minutes at room temperature; 4. ^33P-ATP (specific activity, 10 μCi/μL) was added into the reaction mixture to stimulate the reaction; 5. Incubated for 2 hours at room temperature; 6. Kinase activity was detected by filter-binding method.
# Wee1, sequence (P30291 whole entry): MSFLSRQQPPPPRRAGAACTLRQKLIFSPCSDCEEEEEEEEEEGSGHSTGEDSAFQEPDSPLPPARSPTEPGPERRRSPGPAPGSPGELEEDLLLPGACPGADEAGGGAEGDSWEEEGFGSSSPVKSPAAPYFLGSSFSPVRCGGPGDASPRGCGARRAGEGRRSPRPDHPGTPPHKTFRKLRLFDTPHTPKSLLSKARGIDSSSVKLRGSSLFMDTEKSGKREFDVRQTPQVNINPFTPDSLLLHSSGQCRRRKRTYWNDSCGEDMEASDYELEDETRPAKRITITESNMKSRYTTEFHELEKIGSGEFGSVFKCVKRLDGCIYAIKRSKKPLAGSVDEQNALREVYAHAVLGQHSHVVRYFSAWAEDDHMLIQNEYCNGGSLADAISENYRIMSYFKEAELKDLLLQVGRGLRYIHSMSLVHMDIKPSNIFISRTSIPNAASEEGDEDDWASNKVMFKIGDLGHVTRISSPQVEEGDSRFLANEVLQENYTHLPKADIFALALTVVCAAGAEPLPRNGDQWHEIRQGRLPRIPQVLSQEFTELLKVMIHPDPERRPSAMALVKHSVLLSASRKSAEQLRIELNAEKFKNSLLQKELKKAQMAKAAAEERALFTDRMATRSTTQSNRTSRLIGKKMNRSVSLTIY
row,IC50,Structure (SMILES)
1,30.7 nM,"C=CCn1c(=O)c2cnc(Nc3ccc(N4CCC5(CCN(C)CC5)CC4)cc3)nc2n1-c1cccc(C2(O)CCC2)n1 [Embodiment 40, 2-allyl-1-(6-(1-hydroxycyclobutyl)pyridin-2-yl)-6-((4-(9-methyl-3,9-diazaspiro[5.5]undecan-3-yl)phenyl)amino)-1H-pyrazolo[3,4-d]pyrimidin-3(2H)-one]"
2,13.1 nM,"C=CCn1c(=O)c2cnc(Nc3ccc(N4CCC5(CCN(C)CC5)CC4)cc3)nc2n1-c1cccc(C(C)(O)C(F)(F)F)n1 (stereo not shown) [Embodiment 41, 2-allyl-6-((4-(9-methyl-3,9-diazaspiro[5.5]undecan-3-yl)phenyl)amino)-1-(6-(1,1,1-trifluoro-2-hydroxypropan-2-yl)pyridin-2-yl)-1H-pyrazolo[3,4-d]pyrimidin-3(2H)-one]"
3,17.4 nM,"C=CCn1c(=O)c2cnc(Nc3ccc(N4CCC5(CCN(C)CC5)CC4)cc3)nc2n1-c1cccc(C2(O)COC2)n1 [Embodiment 42, 2-allyl-1-(6-(3-hydroxyoxetan-3-yl)pyridin-2-yl)-6-((4-(9-methyl-3,9-diazaspiro[5.5]undecan-3-yl)phenyl)amino)-1H-pyrazolo[3,4-d]pyrimidin-3(2H)-one]"
4,12.6 nM,C=CCn1c(=O)c2cnc(Nc3ccc(N4CCC5(CCN(C)CC5)CC4)cc3)nc2n1-c1cccc(N2CCCC2=O)n1 [Embodiment 44]
5,7.4 nM,"C=CCn1c(=O)c2cnc(Nc3ccc(N4CCC5(CCN(C)CC5)CC4)cc3)nc2n1-c1cccc(C2CC2)n1 [Embodiment 45, 2-allyl-1-(6-cyclopropylpyridin-2-yl)-6-((4-(9-methyl-3,9-diazaspiro[5.5]undecan-3-yl)phenyl)amino)-1H-pyrazolo[3,4-d]pyrimidin-3(2H)-one]"
6,44.6 nM,"C=CCn1c(=O)c2cnc(Nc3ccc(N4CCC5(CCN(C)CC5)CC4)cc3)nc2n1-c1cccc(C(F)(F)F)n1 [Embodiment 46, 2-allyl-6-((4-(9-methyl-3,9-diazaspiro[5.5]undecane-3-yl)phenyl)amino)-1-(6-(trifluoromethyl)pyridin-2-yl)-1H-pyrazolo[3,4-d]pyrimidine-3(2H)-one]"
7,3 nM,"C=CCn1c(=O)c2cnc(Nc3ccc(N4CCC5(CCN(C)CC5)CC4)cc3)nc2n1-c1cccc(OC)n1 [Embodiment 47, 2-allyl-1-(6-methoxypyridin-2-yl)-6-((4-(9-methyl-3,9-diazaspiro[5.5]undecan-3-yl)phenyl)amino)-1H-pyrazolo[3,4-d]pyrimidin-3(2H)-one]"
8,6.3 nM,"C=CCn1c(=O)c2cnc(Nc3ccc(N4CCC5(CCN(C)CC5)CC4)cc3)nc2n1-c1cccc(OC(C)C)n1 [Embodiment 48, 2-allyl-1-(6-isopropoxypyridin-2-yl)-6-((4-(9-methyl-3,9-diazaspiro[5.5]undecan-3-yl)phenyl)amino)-1H-pyrazolo[3,4-d]pyrimidin-3(2H)-one]"
9,3.1 nM,"C=CCn1c(=O)c2cnc(Nc3ccc(N4CCC5(CCN(C)CC5)CC4)cc3)nc2n1-c1cccc(C(C)(F)F)n1 [Embodiment 49, 2-allyl-1-(6-(1,1-difluoroethyl)pyridin-2-yl)-6-((4-(9-methyl-3,9-diazaspiro[5.5]undecan-3-yl)phenyl)amino)-1H-pyrazolo[3,4-d]pyrimidin-3(2H)-one]"
10,2.5 nM,"C=CCn1c(=O)c2cnc(Nc3ccc(N4CCC5(CCN(C)CC5)CC4)cc3)nc2n1-c1cccc(OC2CC2)n1 [Embodiment 50, 2-allyl-1-(6-cyclopropoxypyridin-2-yl)-6-((4-(9-methyl-3,9-diazaspiro[5.5]undecan-3-yl)phenyl)amino)-1H-pyrazolo[3,4-d]pyrimidin-3(2H)-one]"
11,2.8 nM,"C=CCn1c(=O)c2cnc(Nc3ccc(N4CCC5(CCN(C)CC5)CC4)cc3)nc2n1-c1cccc(OCC)n1 [Embodiment 51, 2-allyl-1-(6-ethoxypyridin-2-yl)-6-((4-(9-methyl-3,9-diazaspiro[5.5]undecan-3-yl)phenyl)amino)-1H-pyrazolo[3,4-d]pyrimidin-3(2H)-one]"
12,71 nM,"C=CCn1c(=O)c2cnc(Nc3ccc(N4CCC5(CCN(C)CC5)CC4)cc3)nc2n1-c1cccc(O[C@@H]2CCOC2)n1 [Embodiment 52, (R)-2-allyl-6-((4(9-methyl-3,9-diazaspiro[5.5]undecan-3-yl)phenyl)amino)-1-(6-((tetrahydrofuran-3-yl)oxy)pyridin-2-yl)-1H-pyrazolo[3,4-d]pyrimidin-3(2H)-one]"
13,63 nM,"C=CCn1c(=O)c2cnc(Nc3ccc(N4CCC5(CCN(C)CC5)CC4)cc3)nc2n1-c1cccc(OC2COC2)n1 [Embodiment 53, 2-allyl-6-((4(9-methyl-3,9-diazaspiro[5.5]undecan-3-yl)phenyl)amino)-1-(6-(oxetan-3-yloxy)pyridin-2-yl)-1H-pyrazolo[3,4-d]pyrimidin-3(2H)-one]"
14,90 nM,"C=CCn1c(=O)c2cnc(Nc3ccc(N4CCC5(CCN(C)CC5)CC4)cc3)nc2n1-c1cccc(O[C@H]2CCOC2)n1 [Embodiment 55, (S)-2-allyl-6-((4(9-methyl-3,9-diazaspiro[5.5]undecan-3-yl)phenyl)amino)-1-(6-((tetrahydrofuran-3-yl)oxy)pyridin-2-yl)-1H-pyrazolo[3,4-d]pyrimidin-3(2H)-one]"
15,74 nM,C=CCn1c(=O)c2cnc(Nc3ccc(N4CCC5(CCN(C)CC5)CC4)cc3)nc2n1-c1cccc(N2CCN(C)C2=O)n1 [Embodiment 56]
16,47 nM,"C=CCn1c(=O)c2cnc(Nc3ccc(N4CCC5(CCN(C)CC5)CC4)cc3)nc2n1-c1cccc(N2CCOC2=O)n1 [Embodiment 57, 3-(6-(2-allyl-6((4-(9-methyl-3,9-diazaspiro[5.5]undecan-3-yl)phenyl)amino)-3-oxo-2,3-dihydro-1H-pyrazolo[3,4-d]pyrimidin-1-yl)pyridin-2-yl)oxazolidin-2one]"
17,73 nM,"C=CCn1c(=O)c2cnc(Nc3ccc(N4CCC5(CCN(C)CC5)CC4)cc3)nc2n1-c1cccc(N2CCNC2=O)n1 [Embodiment 58, 2-allyl-6-((4(9-methyl-3,9-diazaspiro[5.5]undecan-3-yl)phenyl)amino)-1-(6-(2-oxo-1-imidazolidinyl)pyridin-2-yl)-1H-pyrazolo[3,4-d]pyrimidin-3(2H)-one]"
18,22.6 nM,"C=CCn1c(=O)c2cnc(Nc3ccc(N4CCC5(CCN(C)CC5)CC4)cc3)nc2n1-c1cccc(P(C)(C)=O)n1 [Embodiment 59, 2-allyl-1-(6-(dimethylphosphory)pyridin-2-yl)-6-((4-(9-methyl-3,9-diazaspiro[5.5]undecan-3-yl)phenyl)amino)-1H-pyrazolo[3,4-d]pyrimidin-3(2H)-one]"
19,14.8 nM,C=CCn1c(=O)c2cnc(Nc3ccc(N4CCC5(CCN(CCF)CC5)CC4)cc3)nc2n1-c1cccc(C(C)(C)O)n1 [Embodiment 60]
20,15.7 nM,C=CCn1c(=O)c2cnc(Nc3ccc(N4CCC5(CCN(CC(F)F)CC5)CC4)cc3)nc2n1-c1cccc(C(C)(C)O)n1 [Embodiment 61]
21,36.1 nM,"C=CCn1c(=O)c2cnc(Nc3ccc(N4CCC5(CCN(CCC#N)CC5)CC4)cc3)nc2n1-c1cccc(C(C)(C)O)n1 [Embodiment 62, 3-(9-(4((2-allyl-1(6-(2-hydroxypropan-2-yl)pyridin-2-yl)-3-oxo-2,3-dihydro-1H-pyrazolo[3,4-d]pyrimidin-6-yl)amino)phenyl)-3,9-diazaspiro[5.5]undecan-3-yl)propionitrile]"

row,Structure (SMILES),IC50
1,"C=CCn1c(=O)c2cnc(Nc3ccc(N4CCC5(CCN(C)CC5)CC4)cc3)nc2n1-c1cccc(OC2CCC2)n1 [Embodiment 54, 2-allyl-1-(6-cyclobutoxypyridin-2-yl)-6-((4-(9-methyl-3,9-diazaspiro[5.5]undecan-3-yl)phenyl)amino)-1H-pyrazolo[3,4-d]pyrimidin-3(2H)-one]",57 nM
